Measured values published in PMC11528066, “Noninvasive Monitoring of Programmed Death-Ligand 2 Expression with Positron Emission Tomography using ^68Ga-labeled Peptide Antagonist in Preclinical and Exploratory Human Studies” (Research, 2024).
Peptide text beside a SMILES is read from it. * marks the point of attachment. NOTA = O=C(O)CN1CCN(CC(=O)O)CCN(CC(=O)*)CC1; AEEEA = NCCOCCOCCOCC(=O)O

Assays:
[1] = In vitro stability in saline (radio-HPLC); format: physicochemical; conditions: room temperature, over 4 h (0.5, 1, 2, 4 h), 3.74 MBq
Experimental: The in vitro stability of [^68Ga]Ga-HN11-1 and [^68Ga]Ga-HN11-2 (3.74 MBq) in saline and serum was tested by radio-HPLC analysis of its radiochemical purity after incubation at room temperature for 0.5 , 1 , 2 and 4 h.

[2] = test system: A549 tumor xenograft models; assay: Dynamic micro-PET imaging in A549 xenografts; format: in vivo, BALB/C nude mice; conditions: each time point 10 to 60 min, n = 3
Experimental: Micro-PET imaging was conducted using an Inveon PET scanner (Siemens, Germany). Dynamic PET examine were acquired over the first 60 min following the simultaneous injection of 7.4 to 9.25 MBq (200 to 250 μCi) of [^68Ga]Ga-HN11-1 and [^68Ga]Ga-HN11-2. After reconstructing the images and delineating the regions of interest (ROIs), time-radioactivity curves were plotted to obtain the Tumor/Muscle (T/M) ratios. %ID/g represents the percentage of the injected dose of the radiotracer that accumulates in a specific tissue per gram of tissue weight. For the biodistribution study, the xenograft models received an intravenous injection of 3.7 to 5.5 MBq (100 to 150 μCi) of [^68Ga]Ga-HN11-1. After the designated period (10, 30, 60, and 90 min), the mice were euthanized, and important tissues and organs were dissected and collected. The samples were counted using the γ-counter for determining the %ID/g, presented as mean ± standard deviation (SD).
A549 cell lines were provided by the China Center for Type Culture Collection (CCTCC) and cultured in RPMI-1640 medium supplemented with 10 % fetal bovine serum and 100 U/mL penicillin-streptomycin. The lentivirus system was implemented to introduce PD-L2 (PDCD1LG2) over-expressed cDNA into the A549 cells. […] Transfection efficiency was identified by WB and real-time quantitative PCR. […]

PD-L2 = target: T1, PD-L2 (Homo sapiens, UniProt Q9BQ51); assay: [^68Ga]Ga-HN11-1 PET/CT imaging in cancer patients; format: in vivo
T1 construct: from tissue; host or cells: tumour lesions (NSCLC, recurrent or metastatic HNSCC) in living patients
T1 sequence (Q9BQ51 20-273): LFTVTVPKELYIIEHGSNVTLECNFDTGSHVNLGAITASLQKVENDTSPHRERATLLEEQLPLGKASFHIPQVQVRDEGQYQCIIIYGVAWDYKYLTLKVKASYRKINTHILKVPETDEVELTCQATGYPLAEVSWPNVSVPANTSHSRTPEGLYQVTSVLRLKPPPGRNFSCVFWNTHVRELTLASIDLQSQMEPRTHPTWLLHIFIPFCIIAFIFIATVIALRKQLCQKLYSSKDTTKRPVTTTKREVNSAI
Experimental: (§1) The program content was explained to all healthy volunteers and cancer patients, and written informed consent was obtained. Whole-body dynamic imaging was conducted for 60 min using a PET/CT 690 Elite scanner (GE Discovery) immediately after intravenous injection of [^68Ga]Ga-HN11-1 (3.1 to 4.9 MBq/kg). A static body scan was performed 15 to 45 min after injection. All cancer patients underwent [^18F]F-FDG and [^68Ga]Ga-HN11-1 PET/CT imaging within 5 d. Two nuclear medicine physicians reconstructed and reviewed the images on GE aw 4.6 workstations and reached a consensus. They delineated the ROIs and measured the values of maximum standard uptake and average standard uptake (SUVmax and SUVmean). The biological distribution of [^68Ga]Ga-HN11-1 in healthy volunteers was determined by SUVmax and SUVmean. The OLINDA/EXM software (version 1.0, Hermes Medical Solutions AB) was used to estimate the human radiation dose based on the SUVmean of each organ.

[3] = Safety after intravenous injection in volunteers and patients; format: in vivo, human; conditions: 3 healthy volunteers and 6 patients, intravenous injection 3.1 to 4.9 MBq/kg
Experimental: as §1

## CC[C@H](C)[C@H](NC(=O)[C@H](CCCNC(=N)N)NC(=O)CNC(=O)[C@H](CCC(=O)O)NC(=O)[C@H](CC(N)=O)NC(=O)[C@H](Cc1ccc(O)cc1)NC(=O)[C@H](CCCNC(=N)N)NC(=O)[C@H](Cc1ccc(O)cc1)NC(=O)[C@H](Cc1c[nH]cn1)NC(=O)COCCOCCOCCNC(=O)CN1CCN(CC(=O)O)CCN(CC(=O)O)CC1)C(=O)N[C@@H](CCCNC(=N)N)C(=O)N[C@@H](CC(N)=O)C(=O)O [[^68Ga]Ga-HN11-1, metal not drawn] ({NOTA-AEEEA}-HYRYNEGRIRN-OH)
[1]
  in vitro stability in saline (radiochemical purity): > 95%
[2]
  tumor uptake in A549 tumor xenograft models: almost negligible
PD-L2; all patients, n = 6
  median SUVmax: 3.25
PD-L2; patient 1, NSCLC, lung, PD-L2 expression 80 %
  HN11-1 SUVmax: 4.1
PD-L2; patient 2, NSCLC, lung, PD-L2 expression 15 %
  HN11-1 SUVmax: 2.1
PD-L2; patient 3, rHNSCC, buccal
  HN11-1 SUVmax: 4.0
PD-L2; patient 4, rHNSCC, buccal
  HN11-1 SUVmax: 3.0
[3]
  tolerability / adverse pharmacological reactions: well tolerated and without adverse pharmacological reactions observed
